The record followed here is patent EP2210584A1, “Stable polymeric composition comprising an epothilone and an amphiphilic block copolymer” (priority 2009, dated 2010).

This data set is described as follows: Detection of degradation products of sagopilone by HPLC chromatogram. The data set is classed as physicochemical. Particulars: storage of 24 hours at 4°C. The protocol:
The method for measuring the sagopilone content of the micellar dispersions as well as the detection of degradation products is determined by High Performance Liquid Chromatography. The analysis was done on a Agilent 1100 Series chromatography system consisting of a quaternary pump, an autoinjector, a column heater and a UV-detector from Agilent Technologies, Santa Clara, USA .

On to `C=CC[C@H]1C(=O)C(C)(C)[C@@H](O)CC(=O)O[C@H](c2ccc3sc(C)nc3c2)C[C@@H]2O[C@]2(C)CCC[C@H](C)[C@@H]1O` [Sagopilone, (1S,3S,7S,10R,11S,12S,16R)-7,11-dihydroxy-10-(prop-2-en-1-yl)-3-(2-methylbenzothiazol-5-yl)-8,8,12,16-tetramethyl-4,17-dioxabicyclo[14.1.0]heptadecane-5,9-dione], for which the “degradation of Sagopilone solubilized within the polymeric micelles” value is “did not degrade”.
